12 compounds from US20240158391A1, “DERIVATIVES OF 4-(IMIDAZO[1,2-A]PYRIDIN-3-YL)-N-(PYRIDIN-3-YL) PYRIMIDIN-2- AMINE FOR TREATING PROLIFERATIVE DISEASES AND CONDITIONS” (AUCENTRA THERAPEUTICS PTY LTD, priority 2019, published 2024) can be followed below.

Each structure is given as a SMILES string.

Assay [1] addresses T1, FLT3-ITD (Homo sapiens, UniProt P36888).
T1 sequence (P36888 1-993): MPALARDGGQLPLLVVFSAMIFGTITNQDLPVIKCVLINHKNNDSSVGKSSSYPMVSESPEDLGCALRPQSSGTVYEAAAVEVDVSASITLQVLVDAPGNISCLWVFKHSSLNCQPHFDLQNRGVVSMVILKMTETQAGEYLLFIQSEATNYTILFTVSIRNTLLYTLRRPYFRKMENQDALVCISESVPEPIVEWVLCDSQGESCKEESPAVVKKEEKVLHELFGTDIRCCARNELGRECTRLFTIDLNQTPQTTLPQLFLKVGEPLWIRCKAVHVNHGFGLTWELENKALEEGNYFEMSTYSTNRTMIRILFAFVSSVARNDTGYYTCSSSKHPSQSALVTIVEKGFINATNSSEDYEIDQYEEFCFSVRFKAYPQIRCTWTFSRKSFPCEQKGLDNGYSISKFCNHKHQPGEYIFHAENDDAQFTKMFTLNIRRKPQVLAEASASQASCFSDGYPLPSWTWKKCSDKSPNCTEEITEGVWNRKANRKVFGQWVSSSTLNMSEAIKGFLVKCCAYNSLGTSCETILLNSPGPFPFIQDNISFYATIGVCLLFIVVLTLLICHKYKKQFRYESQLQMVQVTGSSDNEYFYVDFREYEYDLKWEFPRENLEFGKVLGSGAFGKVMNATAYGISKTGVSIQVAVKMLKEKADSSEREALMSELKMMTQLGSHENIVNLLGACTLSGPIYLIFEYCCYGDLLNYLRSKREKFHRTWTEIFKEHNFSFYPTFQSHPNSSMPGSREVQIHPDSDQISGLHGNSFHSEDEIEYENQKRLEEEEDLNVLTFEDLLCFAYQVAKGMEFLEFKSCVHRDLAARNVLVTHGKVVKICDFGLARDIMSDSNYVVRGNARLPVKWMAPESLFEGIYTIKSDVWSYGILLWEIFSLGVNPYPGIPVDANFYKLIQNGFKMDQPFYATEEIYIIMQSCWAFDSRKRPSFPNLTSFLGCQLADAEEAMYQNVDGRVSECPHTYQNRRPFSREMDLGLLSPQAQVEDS
As to the kind of experiment: ADP Glo kinase assay, FLT3-ITD. Format: biochemical. To be noted: Km ATP 100 μM, read-out: Enzymatic inhibition, Ki, FLT3-ITD. The gist of the method:
(§1)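 Test compounds were run as 1:3 serial dilutions over 10 concentrations (10-0.0005 μM) in 0.5% DMSO. Kinase reactions proceeded for an optimised time at room temperature before being stopped with ADP Glo reagent.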
A general note: ADP-Glo first removes unused ATP, then detects ADP through luciferase.

Assay [2] has as its target CDK1/CyclinB (Homo sapiens, UniProt P06493). In words: ADP Glo kinase assay, CDK1/CyclinB. Format: biochemical. As to conditions: for Ki: Km ATP, read-out: Enzymatic inhibition, Ki, CDK1 B. The procedure, abridged:
as §1

In assay [3] the target is CDK7/CyclinH/Mat1 (Homo sapiens, UniProt P50613). As to the kind of experiment: ADP Glo kinase assay, CDK7/CyclinH/Mat1. Format: biochemical. As to conditions: for Ki: Km ATP, read-out: Enzymatic inhibition, Ki, CDK7 H; for remaining activity at 1 µM: compound at 1 μM, read-out: Residual enzymatic activity (%) at 1 μM, CDK7 H. The gist of the method: as §1
For assay [4], the target named is CDK2/CyclinA2 (Homo sapiens, UniProt P24941). As to the kind of experiment: ADP Glo kinase assay, CDK2/CyclinA2. As to conditions: for Ki: Km ATP, read-out: Enzymatic inhibition, Ki, CDK2 A. Format: biochemical. The gist of the method:
as §1

Assay [5] concerns MV-4-11. As to the kind of experiment: Proliferation assay (resazurin, leukemia cell lines), MV-4-11. Format: cell-based. To be noted: Homo sapiens, MV4-11, read-out: 72 h Growth inhibition GI50, MV-4-11 cells. From the text:
The following compounds were used as comparators.
For orientation: Resazurin is reduced to fluorescent resorufin, in cell work by metabolically active cells.

Assay [6] deals with CDK4/CyclinD1 (Homo sapiens, UniProt P11802). In words: ADP Glo kinase assay, CDK4/CyclinD1. Format: biochemical. As to conditions: for Ki: Km ATP, read-out: Enzymatic inhibition, Ki, CDK4 D1; for remaining activity at 1 µM: compound at 1 μM, read-out: Residual enzymatic activity (%) at 1 μM, CDK4 D1. As for the experimental part:
Test compounds are used in 1:3 serial dilutions for 10 concentrations (from 10-0.0005 μM) in 0.5% DMSO. […] The kinase reactions are run for optimised time period at room temperature and then the reaction is stopped by adding 5 μL of ADP Glo reagent.

Assay [7] concerns the target CDK6/CyclinD3 (Homo sapiens, UniProt Q00534). As to the kind of experiment: ADP Glo kinase assay, CDK6/CyclinD3. Format: biochemical. As to conditions: Km ATP, read-out: Enzymatic inhibition, Ki, CDK6 D3. The procedure, abridged:
as §1

Assay [8] deals with CDK9/CyclinT1 (Homo sapiens, UniProt P50750). In words: ADP Glo kinase assay, CDK9/CyclinT1. Format: biochemical. As to conditions: for Ki: CDK9/CyclinT1, Km ATP, read-out: Enzymatic inhibition, Ki, CDK9 T1; for inhibition of CDK9 (in words): compared with comparator compounds A, B and C (N-(pyridin-2-yl)pyrimidin-2-amine moiety). The gist of the method: as §1
CDK9/CyclinT1, sequence (P50750 whole entry, species assumed): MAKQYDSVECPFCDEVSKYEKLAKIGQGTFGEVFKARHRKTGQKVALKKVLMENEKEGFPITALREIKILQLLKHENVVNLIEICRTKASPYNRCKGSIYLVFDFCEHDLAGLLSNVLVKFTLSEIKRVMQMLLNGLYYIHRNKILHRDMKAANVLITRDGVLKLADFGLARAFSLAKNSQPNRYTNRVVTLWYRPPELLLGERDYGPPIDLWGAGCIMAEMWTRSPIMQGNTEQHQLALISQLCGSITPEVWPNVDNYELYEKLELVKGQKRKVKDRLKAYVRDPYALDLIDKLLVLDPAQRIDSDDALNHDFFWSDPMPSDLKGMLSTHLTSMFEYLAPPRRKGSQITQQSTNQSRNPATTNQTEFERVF
CDK9/CyclinT1, sequence (O60563 whole entry partner, species assumed): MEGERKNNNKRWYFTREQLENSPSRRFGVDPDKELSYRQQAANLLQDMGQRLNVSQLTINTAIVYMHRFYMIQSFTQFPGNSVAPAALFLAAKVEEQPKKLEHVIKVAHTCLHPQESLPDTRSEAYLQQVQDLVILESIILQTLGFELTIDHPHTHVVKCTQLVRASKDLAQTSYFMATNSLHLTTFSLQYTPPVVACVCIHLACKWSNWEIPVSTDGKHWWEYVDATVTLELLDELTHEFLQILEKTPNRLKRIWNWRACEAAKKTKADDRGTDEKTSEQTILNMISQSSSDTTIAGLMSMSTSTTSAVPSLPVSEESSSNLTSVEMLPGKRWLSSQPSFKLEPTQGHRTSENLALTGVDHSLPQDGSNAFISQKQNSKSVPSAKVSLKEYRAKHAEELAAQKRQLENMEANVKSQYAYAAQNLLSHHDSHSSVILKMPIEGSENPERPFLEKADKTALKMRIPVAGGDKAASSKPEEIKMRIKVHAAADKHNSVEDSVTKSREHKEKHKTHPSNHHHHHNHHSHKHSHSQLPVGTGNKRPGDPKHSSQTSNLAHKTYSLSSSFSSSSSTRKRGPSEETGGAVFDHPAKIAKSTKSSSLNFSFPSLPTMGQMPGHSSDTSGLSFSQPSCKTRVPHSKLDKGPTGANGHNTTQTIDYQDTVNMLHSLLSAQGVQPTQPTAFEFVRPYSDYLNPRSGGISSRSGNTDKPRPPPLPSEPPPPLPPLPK

CDK1/CyclinB, sequence (P06493 whole entry, species assumed): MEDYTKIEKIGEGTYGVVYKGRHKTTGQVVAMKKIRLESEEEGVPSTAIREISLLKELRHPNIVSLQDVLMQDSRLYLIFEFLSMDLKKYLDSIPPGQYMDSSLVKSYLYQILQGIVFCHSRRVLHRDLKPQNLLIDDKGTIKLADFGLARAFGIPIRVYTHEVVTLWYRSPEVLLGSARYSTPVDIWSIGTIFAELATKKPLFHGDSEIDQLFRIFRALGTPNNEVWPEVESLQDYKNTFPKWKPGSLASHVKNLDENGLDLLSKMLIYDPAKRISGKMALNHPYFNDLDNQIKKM
CDK1/CyclinB, sequence (P14635 whole entry partner, species assumed): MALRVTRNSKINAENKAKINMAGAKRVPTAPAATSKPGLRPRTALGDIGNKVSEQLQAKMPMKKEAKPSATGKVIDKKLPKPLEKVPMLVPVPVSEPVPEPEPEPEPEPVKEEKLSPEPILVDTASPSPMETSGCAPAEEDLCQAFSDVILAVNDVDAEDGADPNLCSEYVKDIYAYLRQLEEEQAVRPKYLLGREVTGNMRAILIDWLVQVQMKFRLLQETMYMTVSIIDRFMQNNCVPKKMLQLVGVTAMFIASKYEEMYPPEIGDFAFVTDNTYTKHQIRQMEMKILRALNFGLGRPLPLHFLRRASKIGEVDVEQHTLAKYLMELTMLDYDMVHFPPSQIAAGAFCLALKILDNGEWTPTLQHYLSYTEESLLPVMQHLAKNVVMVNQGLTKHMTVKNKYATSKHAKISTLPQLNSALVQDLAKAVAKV
CDK6/CyclinD3, sequence (Q00534 whole entry, species assumed): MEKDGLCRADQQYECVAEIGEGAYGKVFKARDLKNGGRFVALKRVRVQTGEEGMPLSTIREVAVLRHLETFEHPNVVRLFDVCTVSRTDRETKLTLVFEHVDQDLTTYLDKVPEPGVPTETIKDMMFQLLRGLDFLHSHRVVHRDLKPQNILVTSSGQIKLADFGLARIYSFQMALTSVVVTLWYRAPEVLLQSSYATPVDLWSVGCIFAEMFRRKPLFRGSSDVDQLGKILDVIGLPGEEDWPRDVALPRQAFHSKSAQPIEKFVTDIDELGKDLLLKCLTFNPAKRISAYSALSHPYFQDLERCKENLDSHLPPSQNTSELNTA
CDK6/CyclinD3, sequence (P30281 whole entry partner, species assumed): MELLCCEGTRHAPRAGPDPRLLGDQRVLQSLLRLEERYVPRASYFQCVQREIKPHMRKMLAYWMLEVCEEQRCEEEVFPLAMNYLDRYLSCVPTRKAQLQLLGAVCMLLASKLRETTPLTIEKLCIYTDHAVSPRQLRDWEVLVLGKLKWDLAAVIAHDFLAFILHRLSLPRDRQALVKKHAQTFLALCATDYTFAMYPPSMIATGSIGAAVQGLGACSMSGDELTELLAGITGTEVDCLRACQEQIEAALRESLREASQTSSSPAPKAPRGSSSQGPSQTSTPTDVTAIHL
CDK4/CyclinD1, sequence (P11802 whole entry, species assumed): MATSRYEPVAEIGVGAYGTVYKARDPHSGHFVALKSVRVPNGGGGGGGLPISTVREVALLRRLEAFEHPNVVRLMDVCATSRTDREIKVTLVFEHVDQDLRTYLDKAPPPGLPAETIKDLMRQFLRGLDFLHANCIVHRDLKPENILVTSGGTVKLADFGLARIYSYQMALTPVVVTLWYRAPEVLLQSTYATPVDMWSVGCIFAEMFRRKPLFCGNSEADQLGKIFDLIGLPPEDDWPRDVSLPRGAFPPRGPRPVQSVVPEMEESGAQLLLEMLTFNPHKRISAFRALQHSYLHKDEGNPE
CDK4/CyclinD1, sequence (P24385 whole entry partner, species assumed): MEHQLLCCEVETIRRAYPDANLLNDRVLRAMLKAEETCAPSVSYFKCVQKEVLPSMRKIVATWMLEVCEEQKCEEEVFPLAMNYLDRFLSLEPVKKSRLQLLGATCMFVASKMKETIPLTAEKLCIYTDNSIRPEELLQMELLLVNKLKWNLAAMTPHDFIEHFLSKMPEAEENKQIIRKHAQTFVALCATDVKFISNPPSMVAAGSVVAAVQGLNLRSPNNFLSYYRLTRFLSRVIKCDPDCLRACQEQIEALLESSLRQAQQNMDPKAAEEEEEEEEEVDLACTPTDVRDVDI
CDK7/CyclinH/Mat1, sequence (P50613 whole entry, species assumed): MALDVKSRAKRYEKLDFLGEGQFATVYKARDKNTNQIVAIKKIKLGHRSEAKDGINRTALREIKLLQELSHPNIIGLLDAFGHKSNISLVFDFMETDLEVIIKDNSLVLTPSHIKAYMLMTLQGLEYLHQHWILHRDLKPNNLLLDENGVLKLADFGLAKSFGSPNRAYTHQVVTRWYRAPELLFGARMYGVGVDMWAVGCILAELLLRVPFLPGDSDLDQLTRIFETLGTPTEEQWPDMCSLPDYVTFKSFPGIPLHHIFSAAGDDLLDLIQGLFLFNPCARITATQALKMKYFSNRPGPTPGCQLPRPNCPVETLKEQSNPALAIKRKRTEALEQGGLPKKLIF
CDK7/CyclinH/Mat1, sequence (P51946 whole entry partner, species assumed): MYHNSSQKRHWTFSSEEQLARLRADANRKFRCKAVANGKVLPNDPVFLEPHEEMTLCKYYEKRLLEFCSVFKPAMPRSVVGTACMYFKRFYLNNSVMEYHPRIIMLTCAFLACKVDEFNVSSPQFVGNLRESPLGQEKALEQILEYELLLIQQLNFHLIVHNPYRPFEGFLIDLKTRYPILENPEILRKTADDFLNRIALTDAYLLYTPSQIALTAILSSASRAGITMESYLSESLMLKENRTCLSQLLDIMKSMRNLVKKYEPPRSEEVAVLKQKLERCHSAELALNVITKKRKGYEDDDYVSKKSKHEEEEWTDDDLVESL
CDK7/CyclinH/Mat1, sequence (P51948 whole entry partner, species assumed): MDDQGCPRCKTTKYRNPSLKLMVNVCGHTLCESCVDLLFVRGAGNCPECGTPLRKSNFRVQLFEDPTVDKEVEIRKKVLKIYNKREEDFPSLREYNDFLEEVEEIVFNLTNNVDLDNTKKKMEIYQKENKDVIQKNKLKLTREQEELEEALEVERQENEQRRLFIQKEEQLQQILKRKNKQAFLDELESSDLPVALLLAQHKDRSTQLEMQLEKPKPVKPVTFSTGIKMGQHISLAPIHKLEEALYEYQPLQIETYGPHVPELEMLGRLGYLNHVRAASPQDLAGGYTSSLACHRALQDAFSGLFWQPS

For the compound `CN1CCN(c2ccc(Nc3nccc(-c4cnc5ccc(-c6ccccc6)cn45)n3)cn2)CC1` [Compound 6, N-(6-(4-Methylpiperazin-1-yl)pyridin-3-yl)-4-(6-phenylimidazo[1,2-a]pyridin-3-yl)pyrimidin-2-amine], the Ki (in general, a measure of affinity in units of concentration, obtained from inhibition or displacement) in assay [1] is 4 nM; in assay [2], 265 nM; in assay [3], 238 nM; in assay [4], 177 nM; in assay [6], 229 nM; in assay [7], over 5000 nM. In addition, the Ki in assay [8] is under 0.1 nM. In addition, the GI50 (commonly the concentration that inhibits growth by half) in assay [5] stood at 4 nM. In assay [8], the “inhibition of CDK9 (in words)” value is “dramatically and surprisingly increased the potency of inhibition of CDK9”.
In the case of `CN1CCN(c2ccc(Nc3nccc(-c4cnc5ccc(-c6cccnc6)cn45)n3)cn2)CC1` [Compound 7, N-(6-(4-Methylpiperazin-1-yl)pyridin-3-yl)-4-(6-(pyridin-3-yl)imidazo[1,2-a]pyridin-3-yl)pyrimidin-2-amine], the Ki in assay [1] was 4 nM; in assay [2], 1100 nM; in assay [3], 2730 nM; in assay [4], 825 nM; in assay [6] it was over 500 nM; in assay [7] it was 2160 nM. Further, in assay [8], the Ki turned out to be 0.4 nM. Moreover, the GI50 in assay [5] turned out to be 29 nM. The “inhibition of CDK9 (in words)” value in assay [8] is “dramatically and surprisingly increased the potency of inhibition of CDK9”.
Consider `CN1CCN(c2ccc(Nc3nccc(-c4cnc5ccc(-c6cncnc6)cn45)n3)cn2)CC1` [Compound 8, N-(6-(4-Methylpiperazin-1-yl)pyridin-3-yl)-4-(6-(pyrimidin-5-yl)imidazo[1,2-a]pyridin-3-yl)pyrimidin-2-amine], for which the Ki in assay [1] was 31 nM; in assay [2], over 5000 nM; in assay [3], over 5000 nM; in assay [4], 2860 nM; in assay [6], over 500 nM; in assay [7] it was over 5000 nM. Further, the Ki in assay [8] is 6 nM. Besides, the GI50 in assay [5] came to 19 nM.
In the case of `CC(=O)N1CCN(c2ccc(Nc3ncc(F)c(-c4cnc5ccccn45)n3)cn2)CC1` [Compound 10, 1-(4-(5-((5-Fluoro-4-(imidazo[1,2-a]pyridin-3-yl)pyrimidin-2-yl)amino)pyridin-2-yl)piperazin-1-yl)ethan-1-one], the Ki is 18 nM in assay [1]; 61 nM in assay [2]; 895 nM in assay [3]; 2 nM in assay [4]; over 500 nM in assay [6]; 451 nM in assay [7]. The Ki in assay [8] was 50 nM. For the same compound, in assay [5], the GI50 is 6 nM.
Turning to `CC(=O)N1CCN(c2ccc(Nc3ncc(C)c(-c4cnc5ccccn45)n3)cn2)CC1` [Compound 11, 1-(4-(5-((4-(Imidazo[1,2-a]pyridin-3-yl)-5-methylpyrimidin-2-yl)amino)pyridin-2-yl)piperazin-1-yl)ethan-1-one], the Ki in assay [1] amounted to 20 nM; in assay [4], 101 nM; in assay [7], 1010 nM; in assay [8], 1340 nM. The remaining activity at 1 µM in assay [2] (compound at 1 μM, read-out: Residual enzymatic activity (%) at 1 μM, CDK1 B) was 54%; in assay [3], 20%; in assay [6], 21%. For the same compound, in assay [5], the GI50 was found to be 88 nM.
`CN1CCN(c2ccc(Nc3nccc(-c4cnc5ccc(F)cn45)n3)cn2)CC1` [Compound 12, 4-(6-Fluoroimidazo[1,2-a]pyridin-3-yl)-N-(6-(4-methylpiperazin-1-yl)pyridin-3-yl) pyrimidin-2-amine]: the Ki in assay [1] stood at 7 nM; in assay [2] it was 865 nM; in assay [3] it was 1720 nM; in assay [4] it was 156 nM; in assay [6], 380 nM; in assay [7], 779 nM. Further, the Ki in assay [8] was 29 nM. In addition, the concentration for 50% growth inhibition (GI50) in assay [5] was 13 nM.
Regarding `Cc1cnc(Nc2ccc(N3CCNCC3)nc2)nc1-c1cnc2ccccn12` [Compound 13, 4-(Imidazo[1,2-a]pyridin-3-yl)-5-methyl-N-(6-(piperazin-1-yl)pyridin-3-yl)pyrimidin-2-amine], the Ki in assay [1] turned out to be 6 nM; in assay [2], 500 nM; in assay [3], 410 nM; in assay [4] it was 170 nM; in assay [6] it was 408 nM; in assay [7] it was 299 nM. In addition, the Ki in assay [8] is 494 nM. In addition, the GI50 in assay [5] stood at 7 nM.
For the compound `Cc1cnc(Nc2ccc(N3CCOCC3)nc2)nc1-c1cnc2ccccn12` [Compound 14, 4-(Imidazo[1,2-a]pyridin-3-yl)-5-methyl-N-(6-morpholinopyridin-3-yl)pyrimidin-2-amine], the Ki is 9 nM in assay [1]; 150 nM in assay [2]; 1730 nM in assay [3]; 64 nM in assay [4]; 1600 nM in assay [7]; over 5000 nM in assay [8]. Also, in assay [5], the GI50 was 49 nM. For the same compound, the remaining activity at 1 µM in assay [6] stood at 50%.
In the case of `Fc1cnc(Nc2ccc(N3CCOCC3)nc2)nc1-c1cnc2ccccn12` [Compound 15, 5-Fluoro-4-(imidazo[1,2-a]pyridin-3-yl)-N-(6-morpholinopyridin-3-yl)pyrimidin-2-amine], the inhibition constant (Ki) in assay [1] was 15 nM; in assay [2] it was 10 nM; in assay [3], 1630 nM; in assay [4], 3 nM; in assay [6], 543 nM; in assay [7] it was 1000 nM. In addition, the Ki in assay [8] is 234 nM. For the same compound, the GI50 in assay [5] is 20 nM.
Consider `CS(=O)(=O)N1CCN(c2ccc(Nc3nccc(-c4cnc5ccc(-c6ccccc6)cn45)n3)cn2)CC1` [Compound 17, N-(6-(4-(Methylsulfonyl)piperazin-1-yl)pyridin-3-yl)-4-(6-phenylimidazo[1,2-a]pyridin-3-yl)pyrimidin-2-amine], for which the inhibition constant Ki is 16 nM in assay [1]; over 5000 nM in assay [2]; over 1000 nM in assay [3]; over 1000 nM in assay [4]; over 500 nM in assay [6]; over 5000 nM in assay [7]. Further, in assay [8], the Ki turned out to be 28 nM. Besides, the GI50 in assay [5] was 6 nM.
For the compound `CS(=O)(=O)N1CCN(c2ccc(Nc3nccc(-c4cnc5ccc(-c6ccncc6)cn45)n3)cn2)CC1` [Compound 18, N-(6-(4-(Methylsulfonyl)piperazin-1-yl)pyridin-3-yl)-4-(6-(pyridin-4-yl)imidazo[1,2-a]pyridin-3-yl)pyrimidin-2-amine], the Ki was 27 nM in assay [1]; 450 nM in assay [2]; 557 nM in assay [4]; over 5000 nM in assay [7]; 21 nM in assay [8]. The remaining activity at 1 µM in assay [3] was found to be 28%; in assay [6], 47%. Besides, the GI50 in assay [5] was 1 nM.
For the compound `CS(=O)(=O)N1CCN(c2ccc(Nc3nccc(-c4cnc5ccc(-c6cccnc6)cn45)n3)cn2)CC1` [Compound 19, N-(6-(4-(Methylsulfonyl)piperazin-1-yl)pyridin-3-yl)-4-(6-(pyridin-3-yl)imidazo[1,2-a]pyridin-3-yl)pyrimidin-2-amine], the Ki was 4 nM in assay [1]; 776 nM in assay [2]; 1690 nM in assay [3]; over 5000 nM in assay [7]; 16 nM in assay [8]. Moreover, the remaining activity at 1 µM was found to be 33% in assay [4] (compound at 1 μM, read-out: Residual enzymatic activity (%) at 1 μM, CDK2 A) and 83% in assay [6]. Moreover, the GI50 in assay [5] stood at 17 nM.
